Data taken from US9839642B2, “Beta-tetrazolyl-propionic acids as metallo-beta-lactamase inhibitors” (priority 2014, dated 2017).
Read-outs that look alike come from different tables or passages of the source.

Experiments:
VIM-1 = VIM-1 (Pseudomonas aeruginosa, UniProt A0A0F7KYQ8); assay: Enzyme activity: determination of IC50, fluorescence assay with CCF2-FA substrate; format: biochemical; conditions: CCF2-FA 1.25 μM, 2 hours at 25° C., read-out: VIM1 IC50
Summary of the method: (§1)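 Final enzyme levels differed by target: 1 pM NDM-1, 2 pM IMP-1, 30 pM VIM-1. Each was incubated 2 hours at 25° C with test compound and 1.25 μM CCF2-FA, and 460 nm fluorescence (405 nm excitation) was fitted by 4-parameter curve to obtain IC50.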

NDM-1 = NDM-1 (Klebsiella pneumoniae, UniProt C7C422); assay: as above; format: biochemical; conditions: CCF2-FA 1.25 μM, 2 hours at 25° C., read-out: NDM1 IC50
Chain of NDM-1 (C7C422 29-270, looked up, species assumed): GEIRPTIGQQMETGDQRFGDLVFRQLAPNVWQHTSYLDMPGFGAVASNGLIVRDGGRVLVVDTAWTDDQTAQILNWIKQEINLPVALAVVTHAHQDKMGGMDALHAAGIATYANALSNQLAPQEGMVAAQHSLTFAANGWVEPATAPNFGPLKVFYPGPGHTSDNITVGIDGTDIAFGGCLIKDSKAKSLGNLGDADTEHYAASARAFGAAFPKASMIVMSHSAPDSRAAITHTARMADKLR
Summary of the method: as §1

IMP-1 = IMP-1 (Serratia marcescens, UniProt P52699); assay: as above; format: biochemical; conditions: CCF2-FA 1.25 μM, 2 hours at 25° C., read-out: IMP1 IC50
Chain of IMP-1 (P52699 19-246, looked up, species assumed): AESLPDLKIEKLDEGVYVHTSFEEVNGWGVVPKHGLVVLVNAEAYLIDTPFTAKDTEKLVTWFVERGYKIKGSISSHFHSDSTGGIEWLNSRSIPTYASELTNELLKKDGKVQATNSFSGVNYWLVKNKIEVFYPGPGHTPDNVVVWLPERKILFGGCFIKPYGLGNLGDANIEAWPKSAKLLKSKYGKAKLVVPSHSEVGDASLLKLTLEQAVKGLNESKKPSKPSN
Summary of the method: as §1

[1] = tested on: Klebsiella pneumoniae expressing VIM-1 (IHMA599644); assay: Antibiotic potentiation activity: synergistic concentration (MITC95) with imipenem, growth by OD600; format: cell-based
Summary of the method: (§2)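 Colonies from overnight agar plates (35 °C) were suspended in saline and diluted 1:100 into 1.1× CAMHB. Inhibitor (final 200 μM to 0.195 μM) was combined with imipenem at 1 or 4 μg/ml, incubated 22–24 h at 35 °C, and absorbance read; MITC95 is the lowest inhibitor concentration giving 95% growth inhibition.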

[2] = tested on: Serratia marcescens expressing IMP-1 (CL5741); assay: as above; format: cell-based
Summary of the method: as §2

[3] = tested on: Escherichia coli expressing NDM-1 (CLB30005); assay: as above; format: cell-based
Summary of the method: as §2

[4] = 95% inhibition of bacterial growth, strain IHMA599644
[5] = 95% inhibition of bacterial growth, strain CL5741
[6] = 95% inhibition of bacterial growth, strain CLB30005
[7] = K. pneumoniae IHMA599644 (VIM-1), 95% inhibition of growth
[8] = S. marcescens CL5741 (IMP-1), 95% inhibition of growth
[9] = E. coli CLB30005 (NDM-1), 95% inhibition of growth

Structure (SMILES)	IC50 (VIM-1; enzyme 30 pM) [nM]	IC50 (NDM-1; enzyme 1 pM) [nM]	IC50 (IMP-1; enzyme 2 pM) [nM]	VIM1 KP599644 MITC95 [1, 4] [µM]	IMP1 SM5741 MITC95 [2, 5] [µM]	NDM1 EC30005 MITC95 [3, 6] [µM]	IC50 (VIM-1; VIM-1 enzyme 30 pM) [nM]	IC50 (NDM-1; NDM-1 enzyme 1 pM) [nM]	IC50 (IMP-1; IMP-1 enzyme 2 pM) [nM]	VIM1 KP599644 MITC95 [1, 7] [µM]	IMP1 SM5741 MITC95 [2, 8] [µM]	NDM1 EC30005 MITC95 [3, 9] [µM]
CCC[C@H](C(=O)O)[C@H](Cc1ccc(-c2c(C)nn(C)c2C)cc1)c1nnn[nH]1 [Example 235, (2S)-2-{(1S)-1-(1H-tetrazol-5-yl)-2-[4-(1,3,5-trimethyl-1H-pyrazol-4-yl)phenyl]ethyl}pentanoic acid]	7.6	8.3	5.8	>200	0.78	100	–	–	–	–	–	–
CCC[C@H](C(=O)O)[C@H](Cc1ccc(-c2ccc3c(c2)CNCC3)cc1)c1nnn[nH]1 [Example 236, (2S)-2-[(1S)-2-[4-(1,2,3,4-tetrahydroisoquinolin-7-yl)phenyl]-1-(1H-tetrazol-5-yl)ethyl]pentanoic acid]	4.4	99	71	50	7.8	12.5	–	–	–	–	–	–
CCC[C@H](C(=O)O)[C@H](Cc1ccc(-c2ccc3c(c2)CCNC3)cc1)c1nnn[nH]1 [Example 237, (2S)-2-[(1S)-2-[4-(1,2,3,4-tetrahydroisoquinolin-6-yl)phenyl]-1-(1H-tetrazol-5-yl)ethyl]pentanoic acid]	4	88	88	38	4.7	9.4	–	–	–	–	–	–
CCC[C@H](C(=O)O)[C@H](Cc1ccc(-c2cccc3c2CNC3=O)cc1)c1nnn[nH]1 [Example 238, (2S)-2-[(1S)-2-[4-(1-oxo-2,3-dihydro-1H-isoindol-4-yl)phenyl]-1-(1H-tetrazol-5-yl)ethyl]pentanoic acid]	1.7	6.5	49	200	6.2	50	–	–	–	–	–	–
CCC[C@H](C(=O)O)[C@H](Cc1ccc(-c2ccc3nncn3c2)cc1)c1nnn[nH]1 [Example 239, (2S)-2-[(1S)-1-(1H-tetrazol-5-yl)-2-(4-[1,2,4]triazolo[4,3-a]pyridin-6-ylphenyl)ethyl]pentanoic acid]	1.7	20	190	75	38	38	–	–	–	–	–	–
CCC[C@H](C(=O)O)[C@H](Cc1ccc(-c2ccc(CN(C)C)cc2)cc1)c1nnn[nH]1 [Example 240, (2S)-2-[(1S)-2-{4′-[(dimethylamino)methyl]biphenyl-4-yl}-1-(1H-tetrazol-5-yl)ethyl]pentanoic acid]	6.5	100	75	125	7.8	25	–	–	–	–	–	–
CCC[C@H](C(=O)O)[C@H](Cc1ccc(-c2ccc3ncnn3c2)cc1)c1nnn[nH]1 [Example 241, (2S)-2-[(1S)-1-(1H-tetrazol-5-yl)-2-(4-[1,2,4]triazolo[1,5-a]pyridin-6-ylphenyl)ethyl]pentanoic acid]	0.64	13	58	38	9.4	75	–	–	–	–	–	–
CCC[C@H](C(=O)O)[C@H](Cc1ccc(-c2cnc(N(C)S(C)(=O)=O)nc2)cc1)c1nnn[nH]1 [Example 242, (2S)-2-[(1S)-2-(4-{2-[methyl(methyl-sulfonyl)amino]pyrimidin-5-yl}phenyl)-1-(1H-tetrazol-5-yl)ethyl]pentanoic acid]	1.6	9.3	70	100	12.5	38	–	–	–	–	–	–
CCC[C@H](C(=O)O)[C@H](Cc1ccc(C2=CCCN(C)C2)cc1)c1nnn[nH]1 [Example 243, (2S)-2-[(1S)-2-[4-(1-methyl-1,2,5,6-tetrahydropyridin-3-yl)phenyl]-1-(1H-tetrazol-5-yl)ethyl]pentanoic acid]	3.8	400	500	25	25	18.8	–	–	–	–	–	–
CCC[C@H](C(=O)O)[C@H](Cc1ccc(-c2cnc(C)c(C)n2)cc1)c1nnn[nH]1 [Example 244, (2S)-2-[(1S)-2-[4-(5,6-dimethylpyrazin-2-yl)phenyl]-1-(1H-tetrazol-5-yl)ethyl]pentanoic acid]	–	–	–	–	–	–	4.8	66	250	38	25	9.4
CCC[C@H](C(=O)O)[C@H](Cc1ccc(-c2ccc3c(c2)CNC3)cc1)c1nnn[nH]1 [Example 245, (2S)-2-[(1S)-2-[4-(2,3-dihydro-1H-isoindol-5-yl)phenyl]-1-(1H-tetrazol-5-yl)ethyl]pentanoic acid]	–	–	–	–	–	–	3.7	57	85	25	6.2	9.4
CCC[C@H](C(=O)O)[C@H](Cc1ccc(-c2ccc(-c3nnn[nH]3)cc2)cc1)c1nnn[nH]1 [Example 246, (2S)-2-{(1S)-1-(1H-tetrazol-5-yl)-2-[4′-(1H-tetrazol-5-yl)biphenyl-4-yl]ethyl}pentanoic acid]	–	–	–	–	–	–	2.2	1.1	9.7	100	6.2	38
CCC[C@H](C(=O)O)[C@H](Cc1ccc(-c2cnc3[nH]c(=O)[nH]c3c2)cc1)c1nnn[nH]1 [Example 247, (2S)-2-[(1S)-2-[4-(2-oxo-2,3-dihydro-1H-imidazo[4,5-b]pyridin-6-yl)phenyl]-1-(1H-tetrazol-5-yl)ethyl]pentanoic acid]	–	–	–	–	–	–	0.64	13	92	100	16	31
CCC[C@@H](C(=O)O)[C@H](Cc1ccc(-c2ccc3nnn(C)c3c2)cc1)c1nnn[nH]1 [Example 248, (2R)-2-[(1S)-2-[4-(1-methyl-1H-benzotriazol-6-yl)phenyl]-1-(1H-tetrazol-5-yl)ethyl]pentanoic acid]	–	–	–	–	–	–	230	700	4700	>200	>200	100
CCC[C@H](C(=O)O)[C@H](Cc1ccc(-c2cnc(CO)s2)cc1)c1nnn[nH]1 [Example 249]	–	–	–	–	–	–	1.9	8.4	46	100	>200	100
CCC[C@H](C(=O)O)[C@H](Cc1ccc(-c2cnn(Cc3ccncc3)c2)cc1)c1nnn[nH]1 [Example 250, (2S)-2-[(1S)-2-{4-[1-(pyridin-4-ylmethyl)-1H-pyrazol-4-yl]phenyl}-1-(1H-tetrazol-5-yl)ethyl]pentanoic acid]	–	–	–	–	–	–	7.5	9.6	82	>200	200	25
